Data from US9539322B2, “Method of enhancing an antitumor T cell response by administering an anti-IL-6 receptor antibody” (National University Corporation Hokkaido University, priority 2010, dated 2017).
Structures can show the parent of a compound that is named as a salt.

Tests used:
CD8^+ cells = experiment: Growth ability of spleen CD8+ cells after anti-CD3 stimulation (3H incorporation test), CMC-1 tumor-bearing mice; type: in vivo, BALB/c mice; settings: i.p. 30 days after CMC-1 inoculation (GEM; CY 60 mg/kg; 5-FU 120 mg/kg); spleen CD8+ cells after 48 hours; 60 hours immobilized anti-CD3 2 μg/ml; FIG. 3
Method: (§1) GEM was administered to the tumor-bearing mice 30 days after CMC-1 inoculation, and after 48 hours the absolute number of respective cell populations in the spleen were analyzed by flow cytometry. Cyclophosphamide (CY) (60 mg/kg), fluoro-5-uracil (5-FU) (120 mg/kg), or GEM was intraperitoneally administered to tumor-bearing mice 30 days after CMC-1 inoculation. After 48 hours, CD8^+ cells were isolated from the spleen, and the growth ability after 60 hours of stimulation with immobilized anti-CD3 antibody (2 μg/ml) was assessed by ^3H incorporation test.

[1] = tested on: methylcholanthrene-induced squamous cancer CMC-1; experiment: Antitumor effect of GEM in CMC-1-inoculated mice (tumor growth); type: in vivo; settings: CMC-1 intradermal in BALB/c mice; 120 mg/kg i.p. every week from day 5; FIG. 1
Method: Cell line of methylcholanthrene-induced squamous cancer CMC-1 (2×10^6 cells) was intradermally inoculated to BALB/c mice, and from day 5 after inoculation, GEM (Gemzar: gemcitabine hydrochloride) was intraperitoneally administered at 120 mg/kg every week. The tumor growth was measured every two days to evaluate the antitumor effect of GEM.

immunosuppressive cells = experiment: Flow cytometry of the absolute number of cell populations in the spleen of CMC-1 tumor-bearing mice; type: in vivo, BALB/c mice; settings: tumor-bearing mice 30 days after CMC-1 inoculation; 48 hours after administration; FIG. 2
Method: as §1

CD8^+ T cells = experiment: Tumor diameter with GEM and anti-CD8 antibody (CMC-1); proportion of OVA-specific CD8+ cytotoxic T cells (LLC-OVA); type: in vivo, BALB/c mice; C57BL6 mice; settings: GEM 120 mg/kg i.p.; anti-CD8 antibody 250 μg i.v. every three days (CMC-1); OVA-specific CD8+ CTL in regional lymph nodes (LLC-OVA); FIG. 4, 5
Method: CMC-1 (2×10^6) was intradermally inoculated to BALB/c mice. From day 5 after inoculation, GEM (120 mg/kg) was intraperitoneally administered every week and anti-CD8 antibody (250 μg) was intravenously administered every three days. The tumor diameter was measured every two days. LLC-OVA (2×10^6) prepared by introducing the ovalbumin (OVA) gene into mouse lung cancer cell line LLC was intradermally inoculated to C57BL6 mice, and after five days GEM (120 mg/kg) was intraperitoneally administered. After nine days, the regional lymph nodes were collected and assessed by flow cytometry for the proportion of OVA-specific CD8^+ cytotoxic T cells.

SMILES | growth-enhancing effect for CD8+ T cells (CD8^+ cells) | tumor growth-suppressive effect [1] | elimination of immunosuppressive cells in the spleen (immunosuppressive cells) | antitumor effect through CD8+ T cell activity (CD8^+ T cells)
O=c1[nH]cc(F)c(=O)[nH]1 [5-FU, fluoro-5-uracil] | not observed |  |  | 
O=P1(N(CCCl)CCCl)NCCCO1 (stereo not drawn) [CY, Cyclophosphamide] | not observed |  |  | 
Nc1ccn([C@@H]2O[C@H](CO)[C@@H](O)C2(F)F)c(=O)n1 [GEM, gemcitabine hydrochloride] | excellent growth-enhancing effect for CD8^+ T cells | tumor growth-suppressive effect | eliminates immunosuppressive cells | produces the antitumor effect by enhancing the activity of CD8^+ T cells
